Experimental data reported in US20260020570A1, “HERBICIDAL COMBINATIONS AND A METHOD FOR CONTROLLING UNDESIRED VEGETATION” (UPL Mauritius Limited, priority 2022, published 2026).

Tested on: Eleusine indica
Assay: Post-emergence herbicidal efficacy of L-glufosinate ammonium, additional herbicides and their combinations; expected efficacy by the Colby method
Assay type: in vivo
Procedure: The following products were used for testing the weed control efficacy of present herbicidal combinations.
Evaluation of Post-Emergence Herbicidal Activity:
Methodology: Trials were carried out to evaluate the efficacy of the combinations comprising L-glufosinate ammonium and the additional herbicides on Eleusine genus weeds.
All treatments were in 4 replications per treatment with a spray volume of about 150 L/ha.
Efficacy Evaluation: The expected efficacy of a combination comprising L-glufosinate ammonium and additional herbicides was calculated using the well-established Colby method.
In the Colby method, the expected (or predicted) response of a combination of herbicides is calculated by taking the product of the observed response for each individual component of the combination when applied alone, divided by 100, and subtracting this value from the sum of the observed response for each component when applied alone. An unexpected enhancement in efficacy of the combination is then determined by comparing the observed response of the combination to the expected (or predicted) response as calculated from the observed response of each individual component alone. […] The Colby method requires only a single dose of each herbicide applied alone and the mixture of both doses. The formula used to calculate the expected efficacy (EE) which was compared with the observed efficacy (OE) to determine the efficacy of the present disclosure is explained hereinbelow:
The expected efficacy for a combination of two active ingredients is as follows:
[formula] • wherein, • A=Observed efficacy of active ingredient A at the same concentration as used in the mixture. • B=Observed efficacy of the active ingredient B at the same concentration as used in the mixture.

CCN(CC)C(=O)C(C)Oc1cccc2ccccc12 (centres unmarked) [napropamide, Napropamide]
Observed efficacy (%) of napropamide (675 g a.i./ha) (7 DAA, Table 12): 5%
Observed efficacy (%) of napropamide (675 g a.i./ha) (14 DAA, Table 12): 5%
Observed efficacy (%) of napropamide (675 g a.i./ha) (21 DAA, Table 12): 5%
Observed efficacy (%) of napropamide (675 g a.i./ha) (28 DAA, Table 12): 5%

C[C@@H](Oc1ccc(Oc2cnc3cc(Cl)ccc3n2)cc1)C(=O)OCC1CCCO1 (some centres unmarked) [quizalofop-p-tefuryl, Quizalofop-p-tefuryl]
Observed efficacy (%) of quizalofop-p-tefuryl (25 g a.i./ha) (21 DAA, Table 17): 10%
Observed efficacy (%) of quizalofop-p-tefuryl (25 g a.i./ha) (28 DAA, Table 17): 5%
Observed efficacy (%) of quizalofop-p-tefuryl (25 g a.i./ha) (35 DAA, Table 17): 5%

CP(=O)(O)CC[C@H](N)C(=O)O.N [L-glufosinate ammonium]
Observed efficacy (%) of L-glufosinate ammonium (150 g a.i./ha) (3 DAA, Table 15): 40%
Observed efficacy (%) of L-glufosinate ammonium (150 g a.i./ha) (7 DAA, Table 8): 35%
Observed efficacy (%) of L-glufosinate ammonium (150 g a.i./ha) (7 DAA, Table 9): 35%
Observed efficacy (%) of L-glufosinate ammonium (150 g a.i./ha) (7 DAA, Table 10): 35%
Observed efficacy (%) of L-glufosinate ammonium (150 g a.i./ha) (7 DAA, Table 11): 35%
Observed efficacy (%) of L-glufosinate ammonium (150 g a.i./ha) (7 DAA, Table 12): 40%
Observed efficacy (%) of L-glufosinate ammonium (150 g a.i./ha) (7 DAA, Table 13): 35%
Observed efficacy (%) of L-glufosinate ammonium (150 g a.i./ha) (7 DAA, Table 15): 50%
Observed efficacy (%) of L-glufosinate ammonium (150 g a.i./ha) (7 DAA, Table 18): 70%
Observed efficacy (%) of L-glufosinate ammonium (150 g a.i./ha) (14 DAA, Table 8): 25%
Observed efficacy (%) of L-glufosinate ammonium (150 g a.i./ha) (14 DAA, Table 9): 25%
Observed efficacy (%) of L-glufosinate ammonium (150 g a.i./ha) (14 DAA, Table 10): 25%
Observed efficacy (%) of L-glufosinate ammonium (150 g a.i./ha) (14 DAA, Table 11): 30%
Observed efficacy (%) of L-glufosinate ammonium (150 g a.i./ha) (14 DAA, Table 12): 30%
Observed efficacy (%) of L-glufosinate ammonium (150 g a.i./ha) (14 DAA, Table 13): 30%
Observed efficacy (%) of L-glufosinate ammonium (150 g a.i./ha) (14 DAA, Table 15): 40%
Observed efficacy (%) of L-glufosinate ammonium (150 g a.i./ha) (14 DAA, Table 18): 65%
Observed efficacy (%) of L-glufosinate ammonium (150 g a.i./ha) (21 DAA, Table 8): 20%
Observed efficacy (%) of L-glufosinate ammonium (150 g a.i./ha) (21 DAA, Table 9): 15%
Observed efficacy (%) of L-glufosinate ammonium (150 g a.i./ha) (21 DAA, Table 10): 20%
Observed efficacy (%) of L-glufosinate ammonium (150 g a.i./ha) (21 DAA, Table 12): 20%
Observed efficacy (%) of L-glufosinate ammonium (150 g a.i./ha) (21 DAA, Table 15): 38%
Observed efficacy (%) of L-glufosinate ammonium (150 g a.i./ha) (21 DAA, Table 16): 35%
Observed efficacy (%) of L-glufosinate ammonium (150 g a.i./ha) (21 DAA, Table 17): 25%
Observed efficacy (%) of L-glufosinate ammonium (150 g a.i./ha) (21 DAA, Table 18): 60%
Observed efficacy (%) of L-glufosinate ammonium (150 g a.i./ha) (28 DAA, Table 8): 10%
Observed efficacy (%) of L-glufosinate ammonium (150 g a.i./ha) (28 DAA, Table 9): 5%
Observed efficacy (%) of L-glufosinate ammonium (150 g a.i./ha) (28 DAA, Table 12): 10%
Observed efficacy (%) of L-glufosinate ammonium (150 g a.i./ha) (28 DAA, Table 14): 40%
Observed efficacy (%) of L-glufosinate ammonium (150 g a.i./ha) (28 DAA, Table 15): 30%
Observed efficacy (%) of L-glufosinate ammonium (150 g a.i./ha) (28 DAA, Table 17): 20%
Observed efficacy (%) of L-glufosinate ammonium (150 g a.i./ha) (28 DAA, Table 18): 50%
Observed efficacy (%) of L-glufosinate ammonium (150 g a.i./ha) (35 DAA, Table 15): 20%
Observed efficacy (%) of L-glufosinate ammonium (150 g a.i./ha) (35 DAA, Table 17): 18%

COc1c(Cl)ccc(Cl)c1C(=O)O [Dicamba]
Observed efficacy (%) of Dicamba (228 g a.i./ha) (28 DAA, Table 14): 5%

CCc1cccc(C)c1N(C(=O)CCl)[C@@H](C)COC [S-metolachlor]
Observed efficacy (%) of S-metolachlor (960 g a.i./ha) (7 DAA, Table 8): 5%
Observed efficacy (%) of S-metolachlor (960 g a.i./ha) (14 DAA, Table 8): 40%
Observed efficacy (%) of S-metolachlor (960 g a.i./ha) (21 DAA, Table 8): 40%
Observed efficacy (%) of S-metolachlor (960 g a.i./ha) (28 DAA, Table 8): 65%

C[N+](C)(C)CCO.O=C([O-])COc1ccc(Cl)cc1Cl [2,4-D choline]
Observed efficacy (%) of 2,4-D choline (228 g a.i./ha) (7 DAA, Table 18): 10%
Observed efficacy (%) of 2,4-D choline (228 g a.i./ha) (14 DAA, Table 18): 10%
Observed efficacy (%) of 2,4-D choline (228 g a.i./ha) (21 DAA, Table 18): 10%
Observed efficacy (%) of 2,4-D choline (228 g a.i./ha) (28 DAA, Table 18): 5%

CCc1cccc(C)c1N(COC(C)C)C(=O)CCl [Propisochlor]
Observed efficacy (%) of Propisochlor (540 g a.i./ha) (7 DAA, Table 13): 0%
Observed efficacy (%) of Propisochlor (540 g a.i./ha) (14 DAA, Table 13): 0%

Cc1ccc2c(c1)[C@H](Nc1nc(N)nc(C(C)F)n1)[C@@H](C)C2 (some centres unmarked) [Indaziflam]
Observed efficacy (%) of Indaziflam (50 g a.i./ha) (7 DAA, Table 9): 60%
Observed efficacy (%) of Indaziflam (50 g a.i./ha) (14 DAA, Table 9): 80%
Observed efficacy (%) of Indaziflam (50 g a.i./ha) (21 DAA, Table 9): 85%
Observed efficacy (%) of Indaziflam (50 g a.i./ha) (28 DAA, Table 9): 85%

CCOC(=O)C(C)Oc1ccc(Oc2cnc3cc(Cl)ccc3n2)cc1 (centres unmarked) [quizalofop-ethyl, Quizalofop-ethyl]
Observed efficacy (%) of quizalofop-ethyl (25 g a.i./ha) (21 DAA, Table 16): 95%

CS(=O)(=O)c1ccc(C(=O)C2C(=O)CCCC2=O)c(Cl)c1COCC(F)(F)F [tembotrione, Tembotrione]
Observed efficacy (%) of tembotrione (53 g a.i./ha) (3 DAA, Table 15): 5%
Observed efficacy (%) of tembotrione (53 g a.i./ha) (7 DAA, Table 15): 15%
Observed efficacy (%) of tembotrione (53 g a.i./ha) (14 DAA, Table 15): 40%
Observed efficacy (%) of tembotrione (53 g a.i./ha) (21 DAA, Table 15): 38%
Observed efficacy (%) of tembotrione (53 g a.i./ha) (28 DAA, Table 15): 35%
Observed efficacy (%) of tembotrione (53 g a.i./ha) (35 DAA, Table 15): 30%

CS(=O)(=O)c1cc(C(F)(F)F)ccc1C(=O)c1cnoc1C1CC1 [Isoxaflutole]
Observed efficacy (%) of Isoxaflutole (60 g a.i./ha) (7 DAA, Table 10): 40%
Observed efficacy (%) of Isoxaflutole (60 g a.i./ha) (14 DAA, Table 10): 75%
Observed efficacy (%) of Isoxaflutole (60 g a.i./ha) (21 DAA, Table 10): 85%

Cn1nc(C(F)(F)F)c(CS(=O)(=O)C2=NOC(C)(C)C2)c1OC(F)F [Pyroxasulfone]
Observed efficacy (%) of Pyroxasulfone (75 g a.i./ha) (7 DAA, Table 11): 5%
Observed efficacy (%) of Pyroxasulfone (75 g a.i./ha) (14 DAA, Table 11): 30%
